Source: patent US8178668B2, “2-aminopyridine kinase inhibitors” (OSI Pharmaceuticals, LLC, priority 2008, dated 2012)
Structures can show the parent of a compound that is named as a salt.

Legend:
MET (human) = MET (human) (Homo sapiens, UniProt P08581); assay: MET kinase AlphaScreen assay (Km of ATP); assay type: biochemical; conditions: ATP at Km; at least duplicate experiments
How it was run: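 Biotinylated poly(Glu,Tyr) (200 ng/μL) phosphorylated by MET with ATP at an enzyme-optimized level, in 50 mM HEPES pH 7.4 with Mg2+/Mn2+ and vanadate, 1% DMSO. Reaction runs 60 min at RT. PT66 AlphaScreen donor/acceptor beads are added and signal is read after 1 h.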

RON (human) = RON (human) (Homo sapiens, UniProt Q04912); assay: RON kinase AlphaScreen assay (Km of ATP); assay type: biochemical; conditions: ATP at Km; at least duplicate experiments
How it was run: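 Human RON phosphorylated biotinylated poly(Glu,Tyr) (200 ng/μL) at Km ATP in 50 mM HEPES pH 7.4, 12.5 mM MgCl2, 1% glycerol, 0.334 mM vanadate, 1% DMSO. Reaction ran 30 min at RT after enzyme addition. Product was detected by AlphaScreen with PT66 beads after 1 h.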

Sequence of RON (human) (Q04912 25-1400): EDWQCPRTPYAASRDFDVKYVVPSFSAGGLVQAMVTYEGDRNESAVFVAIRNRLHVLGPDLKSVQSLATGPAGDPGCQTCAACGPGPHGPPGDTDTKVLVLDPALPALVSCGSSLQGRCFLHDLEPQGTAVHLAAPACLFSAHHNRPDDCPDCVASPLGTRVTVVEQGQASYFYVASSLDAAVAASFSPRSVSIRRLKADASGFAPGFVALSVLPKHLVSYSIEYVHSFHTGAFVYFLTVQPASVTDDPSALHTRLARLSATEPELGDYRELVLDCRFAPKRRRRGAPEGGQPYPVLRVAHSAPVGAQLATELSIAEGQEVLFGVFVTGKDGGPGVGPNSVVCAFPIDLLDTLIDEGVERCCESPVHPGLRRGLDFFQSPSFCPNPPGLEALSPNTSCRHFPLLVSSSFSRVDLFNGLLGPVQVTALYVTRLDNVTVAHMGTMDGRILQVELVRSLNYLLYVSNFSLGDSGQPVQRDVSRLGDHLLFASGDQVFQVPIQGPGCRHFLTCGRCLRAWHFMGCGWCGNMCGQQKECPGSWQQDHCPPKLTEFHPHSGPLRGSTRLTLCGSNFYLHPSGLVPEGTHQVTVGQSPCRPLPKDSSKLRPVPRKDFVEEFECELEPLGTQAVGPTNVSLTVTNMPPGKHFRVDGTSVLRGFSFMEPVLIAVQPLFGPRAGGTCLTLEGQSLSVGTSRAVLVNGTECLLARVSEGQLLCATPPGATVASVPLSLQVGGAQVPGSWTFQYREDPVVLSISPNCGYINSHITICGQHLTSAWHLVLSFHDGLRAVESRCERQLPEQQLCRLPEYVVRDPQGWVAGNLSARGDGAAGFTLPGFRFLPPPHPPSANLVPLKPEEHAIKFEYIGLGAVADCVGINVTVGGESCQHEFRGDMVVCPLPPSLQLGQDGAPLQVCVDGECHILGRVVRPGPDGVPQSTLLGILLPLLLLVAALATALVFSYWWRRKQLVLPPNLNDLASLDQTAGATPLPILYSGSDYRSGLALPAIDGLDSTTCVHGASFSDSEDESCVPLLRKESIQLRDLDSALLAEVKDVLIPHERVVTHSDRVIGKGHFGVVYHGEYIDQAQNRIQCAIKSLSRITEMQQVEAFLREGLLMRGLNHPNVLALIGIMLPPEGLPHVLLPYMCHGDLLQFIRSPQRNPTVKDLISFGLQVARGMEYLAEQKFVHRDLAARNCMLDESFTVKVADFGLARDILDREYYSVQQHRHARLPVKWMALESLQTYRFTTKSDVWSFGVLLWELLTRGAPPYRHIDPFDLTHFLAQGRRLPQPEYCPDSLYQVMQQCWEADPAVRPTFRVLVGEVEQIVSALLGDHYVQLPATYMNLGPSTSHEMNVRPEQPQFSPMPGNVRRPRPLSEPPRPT
Sequence of MET (human) (P08581 25-1390): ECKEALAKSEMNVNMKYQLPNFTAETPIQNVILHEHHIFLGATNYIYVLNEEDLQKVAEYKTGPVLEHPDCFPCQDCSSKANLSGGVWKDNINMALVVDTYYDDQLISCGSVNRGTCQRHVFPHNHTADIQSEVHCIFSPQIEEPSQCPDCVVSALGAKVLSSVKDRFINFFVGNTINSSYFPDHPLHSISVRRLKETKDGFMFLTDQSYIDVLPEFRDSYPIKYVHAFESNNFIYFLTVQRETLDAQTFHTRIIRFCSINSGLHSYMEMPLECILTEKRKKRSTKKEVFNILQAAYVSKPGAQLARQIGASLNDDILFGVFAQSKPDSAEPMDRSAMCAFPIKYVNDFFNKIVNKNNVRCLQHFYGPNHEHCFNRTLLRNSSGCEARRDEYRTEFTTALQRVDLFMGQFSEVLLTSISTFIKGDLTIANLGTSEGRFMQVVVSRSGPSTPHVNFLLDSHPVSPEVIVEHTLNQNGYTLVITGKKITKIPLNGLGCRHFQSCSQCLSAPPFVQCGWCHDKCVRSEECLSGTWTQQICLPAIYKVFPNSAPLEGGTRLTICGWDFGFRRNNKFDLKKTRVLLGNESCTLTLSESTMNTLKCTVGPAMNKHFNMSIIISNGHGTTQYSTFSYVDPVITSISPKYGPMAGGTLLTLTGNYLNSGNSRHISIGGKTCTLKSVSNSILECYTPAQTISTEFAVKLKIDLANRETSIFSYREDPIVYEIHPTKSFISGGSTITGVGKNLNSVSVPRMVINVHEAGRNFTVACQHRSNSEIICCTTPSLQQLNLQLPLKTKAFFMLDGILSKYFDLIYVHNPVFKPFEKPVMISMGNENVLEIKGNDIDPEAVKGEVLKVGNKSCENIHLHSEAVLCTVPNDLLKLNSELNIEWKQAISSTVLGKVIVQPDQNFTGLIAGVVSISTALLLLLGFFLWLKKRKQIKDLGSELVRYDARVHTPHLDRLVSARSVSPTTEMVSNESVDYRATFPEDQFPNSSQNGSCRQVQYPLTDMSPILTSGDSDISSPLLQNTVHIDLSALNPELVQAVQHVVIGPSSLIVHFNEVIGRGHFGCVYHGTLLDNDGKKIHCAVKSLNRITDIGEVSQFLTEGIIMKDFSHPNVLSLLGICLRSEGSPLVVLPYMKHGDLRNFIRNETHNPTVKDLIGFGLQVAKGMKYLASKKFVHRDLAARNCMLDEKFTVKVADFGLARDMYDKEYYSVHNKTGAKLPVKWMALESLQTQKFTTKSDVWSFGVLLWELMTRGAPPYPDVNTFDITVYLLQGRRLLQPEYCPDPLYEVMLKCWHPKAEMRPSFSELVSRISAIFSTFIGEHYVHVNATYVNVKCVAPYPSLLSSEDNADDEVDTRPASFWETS

Row | SMILES | IC50 (MET (human)) [µM] | IC50 (RON (human)) [µM]
1 | Cn1cc(-c2cnc(N)c(-c3nc4ccccc4s3)c2)cn1 [Example 119, 3-Benzothiazol-2-yl-5-(1-methyl-1H-pyrazol-4-yl)-pyridin-2-ylamine bis-hydrochloride] | 1 to 20 | 1 to 20
2 | Nc1ncc(-c2cnc(N3CCNCC3)s2)cc1-c1nc2ccccc2s1 [Example 122, 3-Benzothiazol-2-yl-5-(2-piperazin-1-ylthiazol-5-yl)-pyridin-2-ylamine dihydrochloride] | 0.1 to 1 | 0.1 to 1
3 | Nc1ncc(-c2cnn(C3CCC4(CC3)OCCO4)c2)cc1-c1nc2ccccc2s1 [Example 124, 3-Benzothiazol-2-yl-5-[1-(1,4-dioxaspiro[4.5]dec-8-yl)-1H-pyrazol-4-yl]-pyridin-2-ylamine] | > 20 | 1 to 20
4 | CC(C)(C)OC(=O)NCC#Cc1cnc(N)c(-c2nc3ccccc3s2)c1 [Example 125, [3-(6-Amino-5-benzothiazol-2-ylpyridin-3-yl)-prop-2-ynyl]-carbamic acid tert-butyl ester] | 1 to 20 | > 20
5 | Nc1ncc(-c2cnn(CC(=O)N3CCOCC3)c2)cc1-c1nc2ccccc2s1 [Example 132, 2-[4-(6-Amino-5-benzothiazol-2-ylpyridin-3-yl)-pyrazol-1-yl]-1-morpholin-4-ylethanone] | 1 to 20 | 1 to 20
6 | COCCNC(=O)Cn1cc(-c2cnc(N)c(-c3nc4ccccc4s3)c2)cn1 [Example 134, 2-[4-(6-Amino-5-benzothiazol-2-ylpyridin-3-yl)-pyrazol-1-yl]-N-(2-methoxyethyl)-acetamide] | 1 to 20 | 1 to 20
7 | Nc1ncc(-c2cnn(CC(=O)N3CCC(O)C3)c2)cc1-c1nc2ccccc2s1 (stereo not shown) [Example 135, 2-[4-(6-Amino-5-benzothiazol-2-ylpyridin-3-yl)-pyrazol-1-yl]-1-(3-hydroxypyrrolidin-1-yl)-ethanone] | 1 to 20 | 1 to 20
8 | Nc1ncc(-c2cnn(CC(=O)NCCO)c2)cc1-c1nc2ccccc2s1 [Example 136, 2-[4-(6-Amino-5-benzothiazol-2-ylpyridin-3-yl)-pyrazol-1-yl]-N-(2-hydroxyethyl)-acetamide] | 1 to 20 | 1 to 20
9 | CNC(=O)Cn1cc(-c2cnc(N)c(-c3nc4ccccc4s3)c2)cn1 [Example 137, 2-[4-(6-Amino-5-benzothiazol-2-ylpyridin-3-yl)-pyrazol-1-yl]-N-methylacetamide] | > 20 | > 20
10 | CN(C)C(=O)Cn1cc(-c2cnc(N)c(-c3nc4ccccc4s3)c2)cn1 [Example 140, 2-[4-(6-Amino-5-benzothiazol-2-ylpyridin-3-yl)-pyrazol-1-yl]-N,N-dimethylacetamide] | 1 to 20 | 1 to 20
11 | Nc1ncc(-c2cnn(CC(=O)N3CCCCC3)c2)cc1-c1nc2ccccc2s1 [Example 141, 2-[4-(6-Amino-5-benzothiazol-2-ylpyridin-3-yl)-pyrazol-1-yl]-1-piperidin-1-ylethanone] | 1 to 20 | 1 to 20
12 | CC(C(N)=O)n1cc(-c2cnc(N)c(-c3nc4ccccc4s3)c2)cn1 (stereo not shown) [Example 145, 2-[4-(6-Amino-5-benzothiazol-2-ylpyridin-3-yl)-pyrazol-1-yl]-propionamide] | 0.1 to 1 | 1 to 20
13 | COCCNC(=O)C(C)n1cc(-c2cnc(N)c(-c3nc4ccccc4s3)c2)cn1 (stereo not shown) [Example 146, 2-[4-(6-Amino-5-benzothiazol-2-ylpyridin-3-yl)-pyrazol-1-yl]-N-(2-methoxyethyl)-propionamide] | 1 to 20 | 1 to 20
14 | CC(C(=O)NCCO)n1cc(-c2cnc(N)c(-c3nc4ccccc4s3)c2)cn1 (stereo not shown) [Example 147, 2-[4-(6-Amino-5-benzothiazol-2-ylpyridin-3-yl)-pyrazol-1-yl]-N-(2-hydroxyethyl)-propionamide] | 1 to 20 | 1 to 20
15 | CC(C(=O)N(C)C)n1cc(-c2cnc(N)c(-c3nc4ccccc4s3)c2)cn1 (stereo not shown) [Example 148, 2-[4-(6-Amino-5-benzothiazol-2-ylpyridin-3-yl)-pyrazol-1-yl]-N,N-dimethylpropionamide] | 1 to 20 | 1 to 20
16 | CC(C(=O)N1CCC(O)CC1)n1cc(-c2cnc(N)c(-c3nc4ccccc4s3)c2)cn1 (stereo not shown) [Example 150, 2-[4-(6-Amino-5-benzothiazol-2-ylpyridin-3-yl)-pyrazol-1-yl]-1-(4-hydroxypiperidin-1-yl)-propan-1-one] | 0.1 to 1 | 0.1 to 1
17 | CC(C(=O)N1CCCC1)n1cc(-c2cnc(N)c(-c3nc4ccccc4s3)c2)cn1 (stereo not shown) [Example 151, 2-[4-(6-Amino-5-benzothiazol-2-ylpyridin-3-yl)-pyrazol-1-yl]-1-pyrrolidin-1-ylpropan-1-one] | 0.1 to 1 | 0.1 to 1

The remaining lines, values ahead:

Row | IC50 (MET (human)) [µM] | IC50 (RON (human)) [µM] | SMILES
18 | 0.1 to 1 | 0.1 to 1 | CN(C)C(=O)N1CCC(n2cc(-c3cnc(N)c(-c4nc5ccccc5s4)c3)cn2)CC1 [Example 117, 4-[4-(6-Amino-5-benzothiazol-2-yl-pyridin-3-yl)-pyrazol-1-yl]-piperidine-1-carboxylic acid dimethylamide bis-hydrochloride]
19 | 0.1 to 1 | 0.1 to 1 | CC(C)n1cc(-c2cnc(N)c(-c3nc4ccccc4s3)c2)cn1 [Example 118, 3-Benzothiazol-2-yl-5-(1-isopropyl-1H-pyrazol-4-yl)-pyridin-2-ylamine bis-hydrochloride]
20 | 1 to 20 | 1 to 20 | Nc1ncc(-c2cnc(N3CCOCC3)s2)cc1-c1nc2ccccc2s1 [Example 120, 3-Benzothiazol-2-yl-5-(2-morpholin-4-ylthiazol-5-yl)-pyridin-2-ylamine]
21 | 0.1 to 1 | 0.1 to 1 | CN1CCN(c2ncc(-c3cnc(N)c(-c4nc5ccccc5s4)c3)s2)CC1 [Example 121, 3-Benzothiazol-2-yl-5-[2-(4-methylpiperazin-1-yl)-thiazol-5-yl]-pyridin-2-ylamine dihydrochloride]
22 | 0.1 to 1 | 0.1 to 1 | Nc1ncc(-c2cnn(C3CCC(=O)CC3)c2)cc1-c1nc2ccccc2s1 [Example 123, 4-[4-(6-Amino-5-benzothiazol-2-ylpyridin-3-yl)-pyrazol-1-yl]-cyclohexanone]
23 | 1 to 20 | > 20 | NCC#Cc1cnc(N)c(-c2nc3ccccc3s2)c1 [Example 126, 5-(3-Aminoprop-1-ynyl)-3-benzothiazol-2-ylpyridin-2-ylamine]
24 | 1 to 20 | 1 to 20 | CN(C)C(=O)NCC#Cc1cnc(N)c(-c2nc3ccccc3s2)c1 [Example 127, 3-[3-(6-Amino-5-benzothiazol-2-ylpyridin-3-yl)-prop-2-ynyl]-1,1-dimethylurea]
25 | 1 to 20 | 1 to 20 | CCN1CCN(C(=O)NCC#Cc2cnc(N)c(-c3nc4ccccc4s3)c2)CC1 [Example 128, 4-Ethylpiperazine-1-carboxylic acid [3-(6-amino-5-benzothiazol-2-ylpyridin-3-yl)-prop-2-ynyl]-amide]
26 | 1 to 20 | 1 to 20 | NC(=O)NCC#Cc1cnc(N)c(-c2nc3ccccc3s2)c1 [Example 129, [3-(6-Amino-5-benzothiazol-2-ylpyridin-3-yl)-prop-2-ynyl]-urea]
27 | 0.1 to 1 | 1 to 20 | CN(C)CC(=O)NCC#Cc1cnc(N)c(-c2nc3ccccc3s2)c1 [Example 130, N-[3-(6-Amino-5-benzothiazol-2-ylpyridin-3-yl)-prop-2-ynyl]-2-dimethylaminoacetamide]
28 | 1 to 20 | 1 to 20 | Nc1ncc(C#CCNC(=O)CN2CCCC2)cc1-c1nc2ccccc2s1 [Example 131, N-[3-(6-Amino-5-benzothiazol-2-ylpyridin-3-yl)-prop-2-ynyl]-2-pyrrolidin-1-ylacetamide]
29 | 1 to 20 | 1 to 20 | Nc1ncc(-c2cnn(CC(=O)N3CCCC3)c2)cc1-c1nc2ccccc2s1 [Example 133, 2-[4-(6-Amino-5-benzothiazol-2-ylpyridin-3-yl)-pyrazol-1-yl]-1-pyrrolidin-1-ylethanone]
30 | 1 to 20 | 1 to 20 | COCCN(CCOC)C(=O)Cn1cc(-c2cnc(N)c(-c3nc4ccccc4s3)c2)cn1 [Example 138, 2-[4-(6-Amino-5-benzothiazol-2-ylpyridin-3-yl)-pyrazol-1-yl]-N,N-bis-(2-methoxyethyl)-acetamide]
31 | 1 to 20 | 1 to 20 | Nc1ncc(-c2cnn(CC(=O)N3CCC(O)CC3)c2)cc1-c1nc2ccccc2s1 [Example 139, 2-[4-(6-Amino-5-benzothiazol-2-ylpyridin-3-yl)-pyrazol-1-yl]-1-(4-hydroxypiperidin-1-yl)-ethanone]
32 | 1 to 20 | 1 to 20 | CC(C(=O)N1CCOCC1)n1cc(-c2cnc(N)c(-c3nc4ccccc4s3)c2)cn1 (stereo not shown) [Example 142, 2-[4-(6-Amino-5-benzothiazol-2-ylpyridin-3-yl)-pyrazol-1-yl]-1-morpholin-4-ylpropan-1-one]
33 | 1 to 20 | 1 to 20 | COCCN(CCOC)C(=O)C(C)n1cc(-c2cnc(N)c(-c3nc4ccccc4s3)c2)cn1 (stereo not shown) [Example 143, 2-[4-(6-Amino-5-benzothiazol-2-ylpyridin-3-yl)-pyrazol-1-yl]-N,N-bis-(2-methoxyethyl)-propionamide]
34 | 1 to 20 | 1 to 20 | CNC(=O)C(C)n1cc(-c2cnc(N)c(-c3nc4ccccc4s3)c2)cn1 (stereo not shown) [Example 144, 2-[4-(6-Amino-5-benzothiazol-2-ylpyridin-3-yl)-pyrazol-1-yl]-N-methylpropionamide]
35 | 1 to 20 | 1 to 20 | CC(C(=O)N1CCC(O)C1)n1cc(-c2cnc(N)c(-c3nc4ccccc4s3)c2)cn1 (stereo not shown) [Example 149, 2-[4-(6-Amino-5-benzothiazol-2-ylpyridin-3-yl)-pyrazol-1-yl]-1-(3-hydroxypyrrolidin-1-yl)-propan-1-one]
